Experimental data taken from ChEMBL document CHEMBL1201862, “PubChem BioAssay data set” (2004).
Activity calls are given as the source filed them.

Key:
[1] = target: T1, Short transient receptor potential channel 4 (Mus musculus, UniProt Q9QUQ5); experiment: potency of mouse TRPC4 calcium flux blockers – cell-based, HEK293 TRPC4/mu-opioid, DAMGO stimulus, Fluo-4, dose response (AID 492994); assay type: functional
T1 sequence (Q9QUQ5 whole entry): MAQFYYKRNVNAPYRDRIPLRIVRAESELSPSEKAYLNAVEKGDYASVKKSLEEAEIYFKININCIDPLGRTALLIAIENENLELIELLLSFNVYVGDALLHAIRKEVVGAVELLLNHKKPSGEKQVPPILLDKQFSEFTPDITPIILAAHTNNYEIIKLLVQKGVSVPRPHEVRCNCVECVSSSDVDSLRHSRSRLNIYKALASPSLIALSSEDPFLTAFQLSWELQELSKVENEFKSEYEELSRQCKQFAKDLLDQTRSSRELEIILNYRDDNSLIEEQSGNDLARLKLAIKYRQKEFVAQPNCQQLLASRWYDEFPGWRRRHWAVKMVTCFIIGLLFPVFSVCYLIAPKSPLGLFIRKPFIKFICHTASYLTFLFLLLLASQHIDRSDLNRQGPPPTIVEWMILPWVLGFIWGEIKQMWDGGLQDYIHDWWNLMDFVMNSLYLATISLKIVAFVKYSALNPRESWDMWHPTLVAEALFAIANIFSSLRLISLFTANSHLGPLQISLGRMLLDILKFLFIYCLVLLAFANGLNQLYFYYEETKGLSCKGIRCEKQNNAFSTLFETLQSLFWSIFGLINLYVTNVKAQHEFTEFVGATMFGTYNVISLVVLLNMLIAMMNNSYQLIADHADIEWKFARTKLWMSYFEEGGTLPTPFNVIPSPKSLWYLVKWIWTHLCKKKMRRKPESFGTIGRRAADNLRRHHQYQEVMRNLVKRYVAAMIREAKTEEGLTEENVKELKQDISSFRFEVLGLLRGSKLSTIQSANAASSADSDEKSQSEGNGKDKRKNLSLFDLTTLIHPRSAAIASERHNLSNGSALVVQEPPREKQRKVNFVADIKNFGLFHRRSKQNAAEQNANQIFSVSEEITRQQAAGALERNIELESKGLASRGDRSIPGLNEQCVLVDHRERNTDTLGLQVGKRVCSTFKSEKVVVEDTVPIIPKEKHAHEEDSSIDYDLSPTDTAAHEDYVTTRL

[2] = viability loss of HMLE_sh_eGFP cells – cell-based, luminescence, counter-screen for HMLE_sh_ECad selective toxicity project, dose response (AID 463074); assay type: functional, Homo sapiens;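 also: HMLE human mammary epithelial cells expressing control shRNA against eGFP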
[3] = Luminescence Cell-Based Dose Retest to Confirm Inhibitors of Cancer Stem Cells. [Related pubchem assays (depositor defined):AID2717, AID2721]; assay type: functional; conditions: Homo sapiens
Jurkat = experiment: blockers of NF-kB activation in T cells – Jurkat, luciferase reporter, luminescence, B- and T-cell, dose response (AID 489004); assay type: functional, cell-based; conditions: Homo sapiens;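 also: NF-kB luciferase reporter Jurkat cells stimulated with PMA plus ionomycin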
[4] = HIV-1 AD8 envelope cell-cell fusion blockers – cherry-pick, dose response (AID 652062); assay type: functional, cell-based;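 also: luciferase signal from cell-cell fusion driven by HIV-1 clade B AD8 Env; potency is for inhibitors of fusion seen as a drop in luminescence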
[5] = HEK-293T viability loss, compound-treated – cell-based, uHTS hits, cytotoxicity control for B/T-cell NF-kB inhibitor project, dose response (AID 489019); assay type: functional;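 also: IC50 reflects cytotoxicity as loss of cell viability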
[6] = blockers of HIV-1 ZM109 envelope-driven cell-cell fusion – HeLa effector, CEM target cells, luciferase, cherry-pick, dose response (AID 652058); assay type: functional, cell-based;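 also: luciferase signal from HIV-1 Env mediated cell-cell fusion of effector and target cells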
A-375 [7] = experiment: proliferation inhibition in MITF-low A375 cells – cell-based, cherry-pick samples, set 2, counter-screen for MITF modulator project, dose response (AID 540335); assay type: functional; conditions: Homo sapiens
[8] = target: T2, Microphthalmia-associated transcription factor (Homo sapiens, UniProt O75030); experiment: reducers of TRPM1 reporter luminescence, concentration series – cell-based, SK-MEL-5, cherry-picked, set 3, MITF inhibitor project, dose response (AID 493073); assay type: functional;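 also: SK-MEL-5 melanoma cells with luciferase driven by the MITF target TRPM1 promoter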
T2 sequence (O75030 whole entry): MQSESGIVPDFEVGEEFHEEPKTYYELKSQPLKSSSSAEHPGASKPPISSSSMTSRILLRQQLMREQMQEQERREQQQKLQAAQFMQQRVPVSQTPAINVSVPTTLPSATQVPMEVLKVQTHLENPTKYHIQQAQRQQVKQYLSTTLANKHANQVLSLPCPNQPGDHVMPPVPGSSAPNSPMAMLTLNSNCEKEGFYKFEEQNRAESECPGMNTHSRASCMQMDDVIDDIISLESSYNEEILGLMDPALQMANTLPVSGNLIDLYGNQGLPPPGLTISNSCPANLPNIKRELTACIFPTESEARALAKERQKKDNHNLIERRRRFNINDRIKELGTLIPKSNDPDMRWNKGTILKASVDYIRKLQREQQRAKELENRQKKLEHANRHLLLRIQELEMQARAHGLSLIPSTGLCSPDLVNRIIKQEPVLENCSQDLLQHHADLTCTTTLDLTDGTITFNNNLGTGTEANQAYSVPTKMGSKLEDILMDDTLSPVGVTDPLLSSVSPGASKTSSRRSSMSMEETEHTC

[9] = blockers of HIV-1 envelope-mediated cell-cell fusion – cherry-pick, dose response (AID 652057); assay type: functional, cell-based
A-375 [10] = experiment: MITF: Counter assay: A375 proliferation Measured in Cell-Based System Using Plate Reader - 2084-03_Inhibitor_Dose_DryPowder_Activity. [Related pubchem assays (depositor defined):AID488944]; assay type: functional; conditions: Homo sapiens
[11] = target: Luciferin 4-monooxygenase (Photinus pyralis, UniProt P08659); experiment: Counter Screen for Luciferase-based Assay Positives. [Related pubchem assays: 620, 618, 411 ]
[12] = off-target signal loss in HeLa-CEM21 co-culture – HeLa F-luc CTL cells, cherry-picked, counter-screen for HIV-1 Env fusion inhibitor project, dose response (AID 652040); assay type: functional, cell-based;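 also: potency for signal decrease marking cytotoxic or nonspecific inhibition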
HT-1080 = experiment: HT1080 cell viability loss – fluorescence readout (AID 620); assay type: functional, cell-based; conditions: Homo sapiens

Chain of Luciferin 4-monooxygenase (P08659 whole entry, the tested form may be a part): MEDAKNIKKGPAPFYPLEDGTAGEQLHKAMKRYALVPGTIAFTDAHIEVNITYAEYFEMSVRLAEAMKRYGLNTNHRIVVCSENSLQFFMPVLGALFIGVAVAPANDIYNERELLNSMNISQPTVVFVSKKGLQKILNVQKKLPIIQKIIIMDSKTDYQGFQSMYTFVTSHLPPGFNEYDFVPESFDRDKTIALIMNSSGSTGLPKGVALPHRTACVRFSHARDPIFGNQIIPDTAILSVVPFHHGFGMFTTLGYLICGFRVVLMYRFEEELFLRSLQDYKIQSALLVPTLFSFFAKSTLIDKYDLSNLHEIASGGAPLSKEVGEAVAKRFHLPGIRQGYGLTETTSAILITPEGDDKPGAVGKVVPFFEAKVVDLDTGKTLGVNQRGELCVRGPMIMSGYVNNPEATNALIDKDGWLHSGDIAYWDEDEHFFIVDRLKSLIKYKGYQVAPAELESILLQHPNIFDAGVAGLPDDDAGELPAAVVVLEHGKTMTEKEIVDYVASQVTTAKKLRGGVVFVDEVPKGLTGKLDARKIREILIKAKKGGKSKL

COCCN(C)c1cc(C)c2ccccc2n1
IC50 [1]: 20.8 µM (active)

CN(c1ccccc1)c1ccc(/C=C(\C#N)c2nnc3n2CCCCC3)cc1[N+](=O)[O-]
AC50 [2]: 24.3 µM (active)
AC50 [3]: 0.597 µM (active)

CC(C)(C)c1ccc(C(=O)N2CCCCCC2=O)cc1
IC50 (Jurkat): 0.38 µM (active)
AC50 [4]: 4.27 µM (active)
IC50 [5]: > 80 µM (inactive)
AC50 [6]: 0.611 µM (active)
AC50 (A-375 [7]): > 35 µM (active)
AC50 [8]: 1.12 µM (active)
AC50 [9]: 2.77 µM (active)
AC50 (A-375 [10]): > 35 µM (active)
EC50 [11]: 1.5 µM (active)
AC50 [12]: 1.73 µM (active)
EC50 (HT-1080): > 50 µM (not active)
